{"source": "the supplement of paper PMC10307832", "test_in_all_cases": "relative viability (nuclei count vs DMSO), 5 days (fraction); higher = more cells survive", "key": {"ABC-1": {"system": "ABC-1", "in_short": "(§1)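 Dosing by pin tool came one day after lung cancer cell lines were seeded in 1536-well plates, using either one drug or a fixed anchor-drug dose plus five library-drug doses (not always all listed) in √10 steps. After 5 days, nuclei were counted on 4× images. Relative viability is treated-well nuclei count divided by vehicle-well nuclei count, and values are medians of duplicate plates.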"}, "CAL-12T": {"system": "CAL-12T", "in_short": "as §1"}, "HCC-366": {"system": "HCC-366", "in_short": "as §1"}, "HCC-78": {"system": "HCC-78", "in_short": "as §1"}, "LC-2-ad": {"system": "LC-2-ad", "in_short": "as §1"}, "LOU-NH91": {"system": "LOU-NH91", "in_short": "as §1"}, "LU99A": {"system": "LU99A", "in_short": "as §1"}, "NCI-H1395": {"system": "NCI-H1395", "in_short": "as §1"}, "NCI-H1651": {"system": "NCI-H1651", "in_short": "as §1"}, "NCI-H1755": {"system": "NCI-H1755", "in_short": "as §1"}, "NCI-H1793": {"system": "NCI-H1793", "in_short": "as §1"}, "NCI-H1944": {"system": "NCI-H1944", "in_short": "as §1"}, "NCI-H2087": {"system": "NCI-H2087", "in_short": "as §1"}, "NCI-H2170": {"system": "NCI-H2170", "in_short": "as §1"}, "NCI-H2228": {"system": "NCI-H2228", "in_short": "as §1"}, "NCI-H2405": {"system": "NCI-H2405", "in_short": "as §1"}, "NCI-H3122": {"system": "NCI-H3122", "in_short": "as §1"}, "NCI-H460": {"system": "NCI-H460", "in_short": "as §1"}, "PC-3 [JPC-3]": {"system": "PC-3 [JPC-3]", "in_short": "as §1"}, "RERF-LC-KJ": {"system": "RERF-LC-KJ", "in_short": "as §1"}, "UMC-11": {"system": "UMC-11", "in_short": "as §1"}}, "data": [{"smiles": "CCN(CC)CCCCNc1ncc2cc(-c3cc(OC)cc(OC)c3)c(NC(=O)NC(C)(C)C)nc2n1", "note": "+ CS(=O)(=O)CCNCc1ccc(-c2ccc3ncnc(Nc4ccc(OCc5cccc(F)c5)c(Cl)c4)c3c2)o1 [Lapatinib] (partner 2 µM)", "values": [{"measurement": "relative viability", "setting": "ABC-1; first compound 0.01 µM", "value": 1.33}, {"measurement": "relative viability", "setting": "ABC-1; first compound 0.03162 µM", "value": 1.11}, {"measurement": "relative viability", "setting": "ABC-1; first compound 0.1 µM", "value": 1.22}, {"measurement": "relative viability", "setting": "ABC-1; first compound 0.3162 µM", "value": 1.34}, {"measurement": "relative viability", "setting": "ABC-1; first compound 1 µM", "value": 1.22}, {"measurement": "relative viability", "setting": "CAL-12T; first compound 0.03162 µM", "value": 0.56}, {"measurement": "relative viability", "setting": "CAL-12T; first compound 0.1 µM", "value": 0.703}, {"measurement": "relative viability", "setting": "CAL-12T; first compound 0.3162 µM", "value": 0.674}, {"measurement": "relative viability", "setting": "CAL-12T; first compound 1 µM", "value": 0.62}, {"measurement": "relative viability", "setting": "HCC-366; first compound 0.01 µM", "value": 1.05}, {"measurement": "relative viability", "setting": "HCC-366; first compound 0.03162 µM", "value": 1.07}, {"measurement": "relative viability", "setting": "HCC-366; first compound 0.1 µM", "value": 1.73}, {"measurement": "relative viability", "setting": "HCC-366; first compound 0.3162 µM", "value": 1.27}, {"measurement": "relative viability", "setting": "HCC-366; first compound 1 µM", "value": 1.06}, {"measurement": "relative viability", "setting": "HCC-78; first compound 0.03162 µM", "value": 1.09}, {"measurement": "relative viability", "setting": "HCC-78; first compound 0.1 µM", "value": 1.09}, {"measurement": "relative viability", "setting": "HCC-78; first compound 0.3162 µM", "value": 0.87}, {"measurement": "relative viability", "setting": "HCC-78; first compound 1 µM", "value": 0.748}, {"measurement": "relative viability", "setting": "LC-2-ad; first compound 0.01 µM", "value": 1.05}, {"measurement": "relative viability", "setting": "LC-2-ad; first compound 0.03162 µM", "value": 1}, {"measurement": "relative viability", "setting": "LC-2-ad; first compound 0.1 µM", "value": 1.22}, {"measurement": "relative viability", "setting": "LC-2-ad; first compound 0.3162 µM", "value": 1.12}, {"measurement": "relative viability", "setting": "LC-2-ad; first compound 1 µM", "value": 0.917}, {"measurement": "relative viability", "setting": "LOU-NH91; first compound 0.01 µM", "value": 0.664}, {"measurement": "relative viability", "setting": "LOU-NH91; first compound 0.03162 µM", "value": 0.746}, {"measurement": "relative viability", "setting": "LOU-NH91; first compound 0.1 µM", "value": 0.824}, {"measurement": "relative viability", "setting": "LOU-NH91; first compound 0.3162 µM", "value": 0.885}, {"measurement": "relative viability", "setting": "LOU-NH91; first compound 1 µM", "value": 0.737}, {"measurement": "relative viability", "setting": "LU99A; first compound 0.01 µM", "value": 0.946}, {"measurement": "relative viability", "setting": "LU99A; first compound 0.03162 µM", "value": 0.924}, {"measurement": "relative viability", "setting": "LU99A; first compound 0.1 µM", "value": 1.17}, {"measurement": "relative viability", "setting": "LU99A; first compound 0.3162 µM", "value": 1.14}, {"measurement": "relative viability", "setting": "LU99A; first compound 1 µM", "value": 0.93}, {"measurement": "relative viability", "setting": "NCI-H1395; first compound 0.03162 µM", "value": 0.93}, {"measurement": "relative viability", "setting": "NCI-H1395; first compound 0.1 µM", "value": 1.07}, {"measurement": "relative viability", "setting": "NCI-H1395; first compound 0.3162 µM", "value": 0.725}, {"measurement": "relative viability", "setting": "NCI-H1395; first compound 1 µM", "value": 0.551}, {"measurement": "relative viability", "setting": "NCI-H1651; first compound 0.01 µM", "value": 0.896}, {"measurement": "relative viability", "setting": "NCI-H1651; first compound 0.03162 µM", "value": 1.03}, {"measurement": "relative viability", "setting": "NCI-H1651; first compound 0.1 µM", "value": 1.18}, {"measurement": "relative viability", "setting": "NCI-H1651; first compound 0.3162 µM", "value": 0.844}, {"measurement": "relative viability", "setting": "NCI-H1651; first compound 1 µM", "value": 0.554}, {"measurement": "relative viability", "setting": "NCI-H1755; first compound 0.01 µM", "value": 1.12}, {"measurement": "relative viability", "setting": "NCI-H1755; first compound 0.03162 µM", "value": 1.06}, {"measurement": "relative viability", "setting": "NCI-H1755; first compound 0.1 µM", "value": 1.04}, {"measurement": "relative viability", "setting": "NCI-H1755; first compound 0.3162 µM", "value": 1.16}, {"measurement": "relative viability", "setting": "NCI-H1755; first compound 1 µM", "value": 0.793}, {"measurement": "relative viability", "setting": "NCI-H1793; first compound 0.01 µM", "value": 0.623}, {"measurement": "relative viability", "setting": "NCI-H1793; first compound 0.1 µM", "value": 1.03}, {"measurement": "relative viability", "setting": "NCI-H1793; first compound 0.3162 µM", "value": 0.562}, {"measurement": "relative viability", "setting": "NCI-H1793; first compound 1 µM", "value": 0.367}, {"measurement": "relative viability", "setting": "NCI-H1944; first compound 0.01 µM", "value": 0.903}, {"measurement": "relative viability", "setting": "NCI-H1944; first compound 0.03162 µM", "value": 0.789}, {"measurement": "relative viability", "setting": "NCI-H1944; first compound 0.1 µM", "value": 0.996}, {"measurement": "relative viability", "setting": "NCI-H1944; first compound 0.3162 µM", "value": 0.836}, {"measurement": "relative viability", "setting": "NCI-H1944; first compound 1 µM", "value": 0.676}, {"measurement": "relative viability", "setting": "NCI-H2087; first compound 0.01 µM", "value": 1.15}, {"measurement": "relative viability", "setting": "NCI-H2087; first compound 0.03162 µM", "value": 0.99}, {"measurement": "relative viability", "setting": "NCI-H2087; first compound 0.1 µM", "value": 1.23}, {"measurement": "relative viability", "setting": "NCI-H2087; first compound 0.3162 µM", "value": 1.06}, {"measurement": "relative viability", "setting": "NCI-H2087; first compound 1 µM", "value": 1.07}, {"measurement": "relative viability", "setting": "NCI-H2170; first compound 0.01 µM", "value": 0.282}, {"measurement": "relative viability", "setting": "NCI-H2170; first compound 0.03162 µM", "value": 0.269}, {"measurement": "relative viability", "setting": "NCI-H2170; first compound 0.1 µM", "value": 0.298}, {"measurement": "relative viability", "setting": "NCI-H2170; first compound 0.3162 µM", "value": 0.271}, {"measurement": "relative viability", "setting": "NCI-H2170; first compound 1 µM", "value": 0.276}, {"measurement": "relative viability", "setting": "NCI-H2228; first compound 0.01 µM", "value": 1.06}, {"measurement": "relative viability", "setting": "NCI-H2228; first compound 0.03162 µM", "value": 1.35}, {"measurement": "relative viability", "setting": "NCI-H2228; first compound 0.1 µM", "value": 1.19}, {"measurement": "relative viability", "setting": "NCI-H2228; first compound 0.3162 µM", "value": 1.22}, {"measurement": "relative viability", "setting": "NCI-H2228; first compound 1 µM", "value": 0.74}, {"measurement": "relative viability", "setting": "NCI-H2405; first compound 0.01 µM", "value": 0.926}, {"measurement": "relative viability", "setting": "NCI-H2405; first compound 0.03162 µM", "value": 1.05}, {"measurement": "relative viability", "setting": "NCI-H2405; first compound 0.1 µM", "value": 1.16}, {"measurement": "relative viability", "setting": "NCI-H2405; first compound 0.3162 µM", "value": 1.28}, {"measurement": "relative viability", "setting": "NCI-H2405; first compound 1 µM", "value": 1.04}, {"measurement": "relative viability", "setting": "NCI-H3122; first compound 0.01 µM", "value": 0.997}, {"measurement": "relative viability", "setting": "NCI-H3122; first compound 0.03162 µM", "value": 1.04}, {"measurement": "relative viability", "setting": "NCI-H3122; first compound 0.1 µM", "value": 1.16}, {"measurement": "relative viability", "setting": "NCI-H3122; first compound 0.3162 µM", "value": 1.07}, {"measurement": "relative viability", "setting": "NCI-H3122; first compound 1 µM", "value": 1}, {"measurement": "relative viability", "setting": "NCI-H460; first compound 0.01 µM", "value": 1.27}, {"measurement": "relative viability", "setting": "NCI-H460; first compound 0.03162 µM", "value": 1.18}, {"measurement": "relative viability", "setting": "NCI-H460; first compound 0.1 µM", "value": 0.985}, {"measurement": "relative viability", "setting": "NCI-H460; first compound 0.3162 µM", "value": 1.53}, {"measurement": "relative viability", "setting": "NCI-H460; first compound 1 µM", "value": 0.532}, {"measurement": "relative viability", "setting": "PC-3 [JPC-3]; first compound 0.01 µM", "value": 0.479}, {"measurement": "relative viability", "setting": "PC-3 [JPC-3]; first compound 0.03162 µM", "value": 0.453}, {"measurement": "relative viability", "setting": "PC-3 [JPC-3]; first compound 0.1 µM", "value": 0.519}, {"measurement": "relative viability", "setting": "PC-3 [JPC-3]; first compound 0.3162 µM", "value": 0.538}, {"measurement": "relative viability", "setting": "PC-3 [JPC-3]; first compound 1 µM", "value": 0.446}, {"measurement": "relative viability", "setting": "RERF-LC-KJ; first compound 0.01 µM", "value": 0.854}, {"measurement": "relative viability", "setting": "RERF-LC-KJ; first compound 0.03162 µM", "value": 0.893}, {"measurement": "relative viability", "setting": "RERF-LC-KJ; first compound 0.1 µM", "value": 0.907}, {"measurement": "relative viability", "setting": "RERF-LC-KJ; first compound 0.3162 µM", "value": 0.949}, {"measurement": "relative viability", "setting": "RERF-LC-KJ; first compound 1 µM", "value": 0.879}, {"measurement": "relative viability", "setting": "UMC-11; first compound 0.01 µM", "value": 1.18}, {"measurement": "relative viability", "setting": "UMC-11; first compound 0.03162 µM", "value": 1.04}, {"measurement": "relative viability", "setting": "UMC-11; first compound 0.1 µM", "value": 1.1}, {"measurement": "relative viability", "setting": "UMC-11; first compound 0.3162 µM", "value": 1.11}, {"measurement": "relative viability", "setting": "UMC-11; first compound 1 µM", "value": 0.94}]}]}
